Data from PMC11080515, “Novel anthraquinone amide derivatives as potential glyoxalase-I inhibitors” (Journal of Medicine and Life, 2024).
Several values for one entry are separate records, joined by “and”; a condition that tells them apart may be missing. Equal entries are not always repeated. Where two headings read alike, the source gives them in different places.

Biological target: T1, Recombinant human Glo-I (rhGlo-I) (Homo sapiens, UniProt Q04760)
T1 construct: purchased R&D Systems Corporation
T1 sequence (Q04760 2-184 limits assumed): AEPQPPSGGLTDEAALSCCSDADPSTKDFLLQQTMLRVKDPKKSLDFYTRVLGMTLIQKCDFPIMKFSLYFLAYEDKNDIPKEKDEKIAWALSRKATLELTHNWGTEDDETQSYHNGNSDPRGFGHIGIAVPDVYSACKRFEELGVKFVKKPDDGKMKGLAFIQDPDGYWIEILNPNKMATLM
Experiment: In vitro Glo-I enzyme inhibition assay (spectrophotometric, 240 nm)
Type: biochemical
Design: average inhibitory activity: dose or concentration left out as unconfirmed
Details: for % Inhibition / inhibition at 1.25 µM / inhibition at 2.5 µM / inhibition at 5 µM / inhibition at 10 µM / inhibition at 0.625 µM: single replicates
Method: Glo-I inhibitory action was evaluated following the methodology described by Al-Balas et al.. Recombinant human Glo-I (rhGlo-I) was procured from R&D Systems Corporation and […] in sterile deionized water at a precise concentration of 0.5 mg/ml before being reconstituted. The reconstituted rhGlo-I was stored at -70 °C until further use. Dimethyl sulfoxide (DMSO) was used to dissolve the test compounds to produce stock solutions with a 10 mM concentration. The assay buffer required for the experiment was made by mixing 0.1 M sodium phosphate monobasic solution with 0.1 M sodium phosphate dibasic solution, resulting in a pH range of 7.0–7.2. The reduced glutathione and methylglyoxal solutions were combined with a sufficient 0.1 M sodium phosphate assay buffer volume to create the substrate combination. In a cuvette, the assay buffer, substrate solution, and Glo-I enzyme were combined with the synthesized products at the required concentration. […] The maximum absorbance (γmax) was recorded at 240 nm.
In this study, the inhibitory activity of all synthesized compounds against the Glo-I enzyme was evaluated in vitro using recombinant human Glo-I obtained from R&D Systems Corporation. The methodology previously described was employed, which involved measuring the inhibition of Glo-I activity and substrate hydrolysis using a spectrophotometer at 240 nm. […] The activity profile of the tested compounds against Glo-I is depicted in Figure 12.

[1] = concentration 0.625 µM, 0.625 µM
[2] = from the % inhibition curve, 0.625-10 µM, read-out: Calculated IC50
[3] = rhGlo-I, 25 °C, pH 7.0-7.2, read-out: IC50

% Inhibition [1]	inhibition at 1.25 µM (concentration 1.25 µM)	% Inhibition (concentration 1.25 µM, 1.25 µM)	inhibition at 2.5 µM (concentration 2.5 µM)	% Inhibition (concentration 2.5 µM, 2.5 µM)	inhibition at 5 µM (concentration 5 µM)	% Inhibition (concentration 5 µM, 5 µM)	inhibition at 10 µM (concentration 10 µM)	% Inhibition (concentration 10 µM, 10 µM)	IC50 [2]	IC50 [3]	average inhibitory activity	inhibition at 0.625 µM (concentration 0.625 µM)	Structure (SMILES)
4.207% and 6.929% and 8.658%	12%	11.45% and 12.03%	11.8%	13.44% and 14.71%	18.8%	20.12% and 19.93%	33.4%	34.53% and 33.46%	27.9 µM	27.9 µM	–	–	O=C(/C=C/c1ccc(O)c(O)c1)Nc1cccc2c1C(=O)c1ccccc1C2=O [MQ1, (E)-3-(3,4-dihydroxyphenyl)-N-(9, 10-dioxo-9, 10-dihydroanthracen-1-yl) acrylamide]
28.34% and 22.6726%	39.2%	42.53% and 40.76%	69.6%	70.04% and 70.55%	82.3%	84.9% and 85.44%	97.5%	93.8% and 98.6%	1.46 µM	1.46 µM and 1.45 µM	96.63%	27.5%	O=C(/C=C/c1ccc(O)c(O)c1)Nc1ccc2c(c1)C(=O)c1ccccc1C2=O [MQ3, (E)-3-(3,4-dihydroxyphenyl)-N-(9, 10-dioxo-9, 10-dihydroanthracen-2-yl) acrylamide]
6.208% and 1.894% and 2.93%	5.03%	3.871% and 7.392%	10.8%	12.3% and 11.67%	19.4%	20.18% and 23.19%	40.4%	41.45% and 37.85%	14.5 µM	14.5 µM	–	–	O=C(C=Cc1ccccc1)Nc1ccc2c(c1)C(=O)c1ccccc1C2=O [MQ4, N-(9, 10-dioxo-9, 10-dihydroanthracen-2-yl) cinnamamide]
8.55% and 10.84%	10.2%	9.974% and 12.33%	14.3%	12.23% and 12.25%	11.6%	12.81% and 20.99%	22%	29% and 27.36%	107 µM	107 µM	–	8.82%	O=C(C=Cc1ccccc1)Nc1cccc2c1C(=O)c1ccccc1C2=O [MQ5, N-(9, 10-dioxo-9, 10-dihydroanthracen-1-yl) cinnamamide]
